In ChEMBL document CHEMBL4602719, “Discovery of Potent, Selective, and Orally Bioavailable Inhibitors of USP7 with In Vivo Antitumor Activity” (J Med Chem, 2020):
Active and inactive are the calls of the source. The rule behind the calls is not given here.

Legend:
[1] = AUC in nude mouse at 30 mg/kg, po; format: ADME, organism-based; details: in vivo
[2] = Protein binding in mouse plasma by ultracentrifugation method; format: ADME, cell-free; details: read-out: PPB (converted)
MM1.S [3] = test: Antitumor activity against human MM1S cells xenografted in NOD/SCID mouse assessed as tumor growth inhibition at 50 mg/kg, po administered twice daily and measured twice per week relative to control; format: functional; details: read-out: TGI
MM1.S [4] = test: Cytotoxicity against human MM1S cells expressing wild type p53 assessed as reduction in cell viability measured after 5 days by CellTiter-Glo assay; format: functional; details: 120 h
[5] = AUC in NOD/SCID mouse at 30 mg/kg, po; format: ADME, organism-based; details: in vivo
NCI-H526 [6] = test: Cytotoxicity against human NCI-H526 cells expressing p53 mutant assessed as reduction in cell viability measured after 5 days by CellTiter-Glo assay; format: functional; details: NCI-H526, 120 h
[7] = Toxicity in NOD/SCID mouse xenografted with human MM1S cells assessed as decrease in body weight at 50 mg/kg, po administered twice daily and measured twice per week relative to control; format: organism-based; design: scale not given: the % may be the effect or the level left; details: in vivo
[8] = biological target: Voltage-gated inwardly rectifying potassium channel KCNH2 (Homo sapiens, UniProt Q12809); test: Inhibition of human ERG
Sequence of Voltage-gated inwardly rectifying potassium channel KCNH2 (Q12809 whole entry): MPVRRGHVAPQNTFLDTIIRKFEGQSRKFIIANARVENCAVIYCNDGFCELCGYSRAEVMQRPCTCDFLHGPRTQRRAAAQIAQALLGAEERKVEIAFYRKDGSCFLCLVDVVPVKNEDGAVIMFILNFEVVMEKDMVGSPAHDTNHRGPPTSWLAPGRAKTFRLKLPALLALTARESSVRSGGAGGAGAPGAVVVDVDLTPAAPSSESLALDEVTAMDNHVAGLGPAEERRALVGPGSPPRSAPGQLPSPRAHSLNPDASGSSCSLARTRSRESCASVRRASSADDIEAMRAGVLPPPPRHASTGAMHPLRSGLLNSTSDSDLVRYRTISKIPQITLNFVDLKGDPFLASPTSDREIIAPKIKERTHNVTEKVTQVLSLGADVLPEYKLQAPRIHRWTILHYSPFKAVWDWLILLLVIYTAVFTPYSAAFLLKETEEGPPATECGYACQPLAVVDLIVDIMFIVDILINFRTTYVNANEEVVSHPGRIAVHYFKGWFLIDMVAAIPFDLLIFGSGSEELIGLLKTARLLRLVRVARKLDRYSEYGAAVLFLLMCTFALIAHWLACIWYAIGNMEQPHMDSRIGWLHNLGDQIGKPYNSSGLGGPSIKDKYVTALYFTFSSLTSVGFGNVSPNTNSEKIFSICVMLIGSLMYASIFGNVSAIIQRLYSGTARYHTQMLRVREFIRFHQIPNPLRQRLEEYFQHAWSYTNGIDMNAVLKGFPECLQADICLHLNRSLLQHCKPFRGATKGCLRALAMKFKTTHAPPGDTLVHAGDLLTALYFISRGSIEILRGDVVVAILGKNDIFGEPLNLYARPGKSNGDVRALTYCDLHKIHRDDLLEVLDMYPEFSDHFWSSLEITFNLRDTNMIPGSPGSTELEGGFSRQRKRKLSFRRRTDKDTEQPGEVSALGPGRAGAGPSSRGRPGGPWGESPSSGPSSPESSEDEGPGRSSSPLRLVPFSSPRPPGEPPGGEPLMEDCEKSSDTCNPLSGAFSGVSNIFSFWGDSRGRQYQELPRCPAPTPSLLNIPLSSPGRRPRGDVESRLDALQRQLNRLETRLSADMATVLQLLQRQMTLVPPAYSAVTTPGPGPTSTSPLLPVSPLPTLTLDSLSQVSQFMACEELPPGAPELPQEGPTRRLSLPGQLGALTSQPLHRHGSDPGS

[9] = biological target: T1, Ubiquitin carboxyl-terminal hydrolase 7 (Homo sapiens, UniProt Q93009); test: Inhibition of USP7 in human RKO cells transfected with p53 luciferase reporter vector assessed as increase in p53-dependent luciferase activity measured after 18 hrs by BrightGlo luciferase assay; format: cell-based
T1 sequence (Q93009 whole entry): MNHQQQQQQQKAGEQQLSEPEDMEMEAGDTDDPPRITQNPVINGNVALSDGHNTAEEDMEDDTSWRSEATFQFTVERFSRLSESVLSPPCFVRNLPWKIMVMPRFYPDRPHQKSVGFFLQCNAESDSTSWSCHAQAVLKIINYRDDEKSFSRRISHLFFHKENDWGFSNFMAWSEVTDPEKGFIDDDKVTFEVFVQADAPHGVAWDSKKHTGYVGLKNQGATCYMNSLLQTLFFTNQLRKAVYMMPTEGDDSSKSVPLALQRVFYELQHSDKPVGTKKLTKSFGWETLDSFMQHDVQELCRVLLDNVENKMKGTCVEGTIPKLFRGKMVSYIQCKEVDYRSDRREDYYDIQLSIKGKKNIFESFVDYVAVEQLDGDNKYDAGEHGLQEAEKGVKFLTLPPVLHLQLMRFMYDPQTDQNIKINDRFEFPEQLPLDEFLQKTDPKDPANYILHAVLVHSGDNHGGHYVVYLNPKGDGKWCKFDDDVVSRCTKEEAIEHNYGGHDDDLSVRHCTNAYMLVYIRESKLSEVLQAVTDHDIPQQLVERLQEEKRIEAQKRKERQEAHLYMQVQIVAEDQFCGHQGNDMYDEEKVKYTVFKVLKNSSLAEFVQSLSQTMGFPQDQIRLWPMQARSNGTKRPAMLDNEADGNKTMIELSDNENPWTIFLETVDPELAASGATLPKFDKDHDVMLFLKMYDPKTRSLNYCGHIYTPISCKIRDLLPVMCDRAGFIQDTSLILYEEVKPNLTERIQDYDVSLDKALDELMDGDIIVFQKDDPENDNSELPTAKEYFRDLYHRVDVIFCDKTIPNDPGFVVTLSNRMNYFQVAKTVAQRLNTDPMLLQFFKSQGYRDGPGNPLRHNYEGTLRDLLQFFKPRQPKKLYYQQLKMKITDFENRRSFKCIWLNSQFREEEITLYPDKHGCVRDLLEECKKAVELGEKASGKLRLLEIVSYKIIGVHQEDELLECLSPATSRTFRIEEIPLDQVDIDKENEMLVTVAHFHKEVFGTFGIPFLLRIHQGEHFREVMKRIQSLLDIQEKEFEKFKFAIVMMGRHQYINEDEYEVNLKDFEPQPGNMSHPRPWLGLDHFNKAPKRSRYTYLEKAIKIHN

[10] = biological target: T1, Ubiquitin carboxyl-terminal hydrolase 7; test: Inhibition of recombinant full length USP7 (unknown origin) using ubiquintin-rhodamine as substrate preincubated for 30 mins followed by substrate addition measured after 1 hr by fluorescence-based Envision plate reader assay
[11] = Cytotoxicity against human RKO cells assessed as reduction in cellular ATP level measured after 5 days by CellTiter-Glo assay; format: cell-based
[12] = AUC in BALB/c mouse at 30 mg/kg, po; format: ADME, organism-based; details: in vivo
NCI-H526 [13] = details: Homo sapiens
Description: Antitumor activity against human NCI-H526 cells xenografted in athymic nu/nu mouse assessed as tumor growth inhibition at 50 mg/kg, po administered twice daily for 24 days and measured twice per week

[14] = biological target: T2, Ubiquitin carboxyl-terminal hydrolase isozyme L3 (Homo sapiens, UniProt P15374); test: Inhibition of human GST-tagged UCHL3 expressed in Escherichia coli assessed as cleavage of Ubiquitin-Rhodamine110-glycine to Ubiquitin and Rhodamine110-glycine using Ubiquitin-Rhodamine110-glycine as substrate by fluorescence based analysis
T2 sequence (P15374 whole entry): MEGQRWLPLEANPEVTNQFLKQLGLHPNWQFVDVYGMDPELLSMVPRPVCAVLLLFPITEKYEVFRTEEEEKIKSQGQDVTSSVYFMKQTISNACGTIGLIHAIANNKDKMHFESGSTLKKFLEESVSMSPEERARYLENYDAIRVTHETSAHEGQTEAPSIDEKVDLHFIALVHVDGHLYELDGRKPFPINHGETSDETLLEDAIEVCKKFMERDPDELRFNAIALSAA

[15] = biological target: T3, Ubiquitin carboxyl-terminal hydrolase 1 (Homo sapiens, UniProt O94782); test: Inhibition of His6-tagged human USP1 expressed in insect Sf21 cells coexpressing untagged UAF1 assessed as cleavage of Ubiquitin-Rhodamine110-glycine to Ubiquitin and Rhodamine110-glycine using Ubiquitin-Rhodamine110-glycine as substrate by fluorescence based analysis
T3 sequence (O94782 whole entry): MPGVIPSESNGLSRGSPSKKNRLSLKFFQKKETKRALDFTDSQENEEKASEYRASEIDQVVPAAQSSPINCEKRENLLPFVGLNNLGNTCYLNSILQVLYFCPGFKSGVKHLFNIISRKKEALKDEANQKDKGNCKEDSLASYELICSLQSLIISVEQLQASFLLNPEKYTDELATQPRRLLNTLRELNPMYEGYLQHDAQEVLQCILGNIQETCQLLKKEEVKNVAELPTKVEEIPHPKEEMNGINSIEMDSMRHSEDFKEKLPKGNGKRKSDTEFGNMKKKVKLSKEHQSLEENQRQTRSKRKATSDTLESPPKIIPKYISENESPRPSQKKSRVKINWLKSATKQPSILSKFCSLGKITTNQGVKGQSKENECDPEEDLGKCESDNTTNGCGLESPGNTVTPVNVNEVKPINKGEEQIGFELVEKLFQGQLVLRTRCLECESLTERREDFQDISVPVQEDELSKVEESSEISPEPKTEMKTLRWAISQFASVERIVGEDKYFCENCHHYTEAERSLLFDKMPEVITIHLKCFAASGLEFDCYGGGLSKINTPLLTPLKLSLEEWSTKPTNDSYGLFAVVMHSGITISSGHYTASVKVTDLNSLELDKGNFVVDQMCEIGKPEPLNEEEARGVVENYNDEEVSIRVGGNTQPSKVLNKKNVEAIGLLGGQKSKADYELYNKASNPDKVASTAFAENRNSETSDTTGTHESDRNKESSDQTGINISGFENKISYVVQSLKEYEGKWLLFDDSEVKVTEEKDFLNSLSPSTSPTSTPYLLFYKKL

[16] = biological target: T4, Ubiquitin carboxyl-terminal hydrolase 47 (Homo sapiens, UniProt Q96K76); test: Inhibition of USP47 (unknown origin) by biochemical assay
T4 sequence (Q96K76 whole entry): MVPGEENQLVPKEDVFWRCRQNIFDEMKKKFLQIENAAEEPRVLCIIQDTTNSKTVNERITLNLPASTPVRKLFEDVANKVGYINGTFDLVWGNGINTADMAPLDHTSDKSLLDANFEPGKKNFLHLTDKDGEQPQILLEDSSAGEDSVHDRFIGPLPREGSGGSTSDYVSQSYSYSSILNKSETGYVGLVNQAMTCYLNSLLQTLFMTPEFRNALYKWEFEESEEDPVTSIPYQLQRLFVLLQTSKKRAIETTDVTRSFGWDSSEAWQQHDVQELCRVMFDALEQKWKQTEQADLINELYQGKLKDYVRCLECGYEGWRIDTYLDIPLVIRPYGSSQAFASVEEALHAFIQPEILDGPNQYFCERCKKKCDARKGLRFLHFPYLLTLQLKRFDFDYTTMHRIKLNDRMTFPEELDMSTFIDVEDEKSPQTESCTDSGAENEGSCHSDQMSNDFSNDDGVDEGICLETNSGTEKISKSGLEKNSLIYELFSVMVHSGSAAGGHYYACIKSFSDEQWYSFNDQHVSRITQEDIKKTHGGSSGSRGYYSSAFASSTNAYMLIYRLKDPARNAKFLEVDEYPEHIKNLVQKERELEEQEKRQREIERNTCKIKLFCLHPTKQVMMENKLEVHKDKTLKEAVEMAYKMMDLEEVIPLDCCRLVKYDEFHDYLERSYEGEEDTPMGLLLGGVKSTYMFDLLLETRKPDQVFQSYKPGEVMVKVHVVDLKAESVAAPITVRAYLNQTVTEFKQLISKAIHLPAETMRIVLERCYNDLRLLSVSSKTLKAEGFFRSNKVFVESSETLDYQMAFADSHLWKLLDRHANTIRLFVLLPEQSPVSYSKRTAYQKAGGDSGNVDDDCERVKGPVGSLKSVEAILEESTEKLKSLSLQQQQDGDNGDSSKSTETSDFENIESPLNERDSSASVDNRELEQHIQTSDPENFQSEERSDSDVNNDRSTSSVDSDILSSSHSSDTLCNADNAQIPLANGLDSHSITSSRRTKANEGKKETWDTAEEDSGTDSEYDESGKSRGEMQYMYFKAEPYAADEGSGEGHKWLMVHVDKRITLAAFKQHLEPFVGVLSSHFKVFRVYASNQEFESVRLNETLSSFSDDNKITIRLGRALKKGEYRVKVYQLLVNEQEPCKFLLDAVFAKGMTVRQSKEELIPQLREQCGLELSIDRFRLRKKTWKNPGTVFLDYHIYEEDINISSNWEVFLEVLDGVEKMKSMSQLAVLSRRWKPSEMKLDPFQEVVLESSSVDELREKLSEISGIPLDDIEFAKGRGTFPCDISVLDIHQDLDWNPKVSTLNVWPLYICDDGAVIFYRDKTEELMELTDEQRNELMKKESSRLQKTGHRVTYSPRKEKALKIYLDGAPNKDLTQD

Row | AUC [1] [ng·h/mL] | fraction unbound [2] | AUC [5] [ng·h/mL] | EC50 [9] [µM] | IC50 [10] [µM] | AUC [12] [ng·h/mL] | IC50 [14] [µM] | IC50 [15] [µM] | IC50 [16] [µM] | Compound | inhibition in vivo at 50 mg/kg (MM1.S [3]) [%] | CC50 (MM1.S [4]) [µM] | CC50 (NCI-H526 [6]) [µM] | Activity [7] [%] | IC50 [8] [µM] | CC50 at 120 h [11] [µM] | TGI (NCI-H526 [13])
1 | 4600 | 0.047 | 5500 | 0.025 | 0.00044 | 9400 |  |  |  | Cc1cc(Cl)cc(-c2ccnc3cc(CN4C(=O)C5C(C4=O)C5(C)C)sc23)c1C[C@@H]1CNCCO1 (stereo not given in full) | 100 | 0.089 | 0.45 | < 90 | 4.2 | 13 | Active
2 |  |  |  |  |  |  | > 80 | > 80 | > 80 | CC(Cc1ccccc1)C(=O)N1CCC(O)(Cn2cnc3ccccc3c2=O)CC1 (stereo not given) |  |  |  |  |  |  | 
3 |  |  |  |  | 5.6 |  | > 80 | > 80 | > 80 | Nc1cc(-c2cc(Cl)cc3c2OC(C(=O)N2CCNCC2)C3)ccn1 (racemic) |  |  |  |  |  |  | 
